Assay results as given in patent publication US20080114007A1 (priority 2006, published 2008).
pIC50: −log10 of the molar value. Like-named read-outs stand apart in the source and are kept apart here.

Target: CSF-1R (Homo sapiens, UniProt P07333)
Assay: Peptide (non-phosphorylated) assay, fluorescence polarization competition immunoassay
Format: biochemical
Conditions: 308 μM SYEGNSYTFIDPTQ peptide, 1 mM ATP, 80 min, mean of at least three determinations
Outline: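 Read-out is fluorescence polarization: after EDTA quench, anti-phosphotyrosine antibody plus PTK green tracer compete with the phosphorylated peptide for 30 min. The CSF-1R reaction itself ran 80 min at room temperature after ATP addition. DMSO (4%) wells served as controls, positive controls pre-treated with EDTA.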

[1] = 0.7 nM CSF-1R, read-out: c-fms Peptide IC50

Sequence of CSF-1R (P07333 20-972): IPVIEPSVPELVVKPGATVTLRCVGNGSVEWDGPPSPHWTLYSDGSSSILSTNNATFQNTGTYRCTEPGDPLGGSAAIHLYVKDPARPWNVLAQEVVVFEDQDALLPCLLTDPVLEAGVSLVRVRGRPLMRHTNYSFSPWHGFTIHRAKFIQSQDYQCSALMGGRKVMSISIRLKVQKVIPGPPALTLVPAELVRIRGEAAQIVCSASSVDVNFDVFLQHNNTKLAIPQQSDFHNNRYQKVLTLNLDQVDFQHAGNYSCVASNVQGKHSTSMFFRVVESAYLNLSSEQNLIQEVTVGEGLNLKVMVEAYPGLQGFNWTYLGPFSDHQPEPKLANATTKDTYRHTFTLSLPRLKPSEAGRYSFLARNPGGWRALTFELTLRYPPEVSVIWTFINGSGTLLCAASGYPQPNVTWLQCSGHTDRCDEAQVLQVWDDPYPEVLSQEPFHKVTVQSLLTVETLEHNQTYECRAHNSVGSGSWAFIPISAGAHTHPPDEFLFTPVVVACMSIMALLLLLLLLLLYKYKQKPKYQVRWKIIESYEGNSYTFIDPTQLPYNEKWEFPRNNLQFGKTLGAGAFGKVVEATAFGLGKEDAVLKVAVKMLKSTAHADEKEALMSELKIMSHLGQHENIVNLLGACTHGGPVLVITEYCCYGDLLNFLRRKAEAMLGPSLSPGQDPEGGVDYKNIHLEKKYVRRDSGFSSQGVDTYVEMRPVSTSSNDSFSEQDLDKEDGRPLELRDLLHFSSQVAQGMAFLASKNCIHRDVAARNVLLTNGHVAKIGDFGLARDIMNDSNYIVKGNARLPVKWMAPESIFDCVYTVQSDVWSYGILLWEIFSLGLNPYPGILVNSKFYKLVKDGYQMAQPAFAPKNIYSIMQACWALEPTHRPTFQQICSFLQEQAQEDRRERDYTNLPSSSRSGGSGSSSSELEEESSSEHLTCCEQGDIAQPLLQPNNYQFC

Row | pIC50 [1] | pIC50 (c-fms Peptide IC50, 0.7 nM CSF-1R) | Structure (SMILES)
1 | 9.52 |  | CONC(=O)c1cn(C2CCCCC2)c2nc(Nc3ccc(CCN4CCN(C)CC4)cc3)ncc2c1=O [Cpd 18, 8-cyclohexyl-2-{4-[2-(4-methyl-piperazin-1-yl)-ethyl]-phenylamino}-5-oxo-5,8-dihydro-pyrido[2,3-d]pyrimidine-6-carboxylic acid methoxy-amide]
2 | 9.72 |  | CCONC(=O)c1cn(C2CCCCC2)c2nc(Nc3ccc(CCN4CCCC4)cc3)ncc2c1=O [Cpd 15, 8-cyclohexyl-5-oxo-2-[4-(2-pyrrolidin-1-yl-ethyl)-phenylamino]-5,8-dihydro-pyrido[2,3-d]pyrimidine-6-carboxylic acid ethoxy-amide]
3 | 8.02 |  | CN1CCN(c2ccc(Nc3ncc4c(=O)c(C(N)=O)cn(Cc5ccccc5)c4n3)cc2)CC1 [Cpd 114, 8-benzyl-2-[4-(4-methyl-piperazin-1-yl)-phenylamino]-5-oxo-5,8-dihydro-pyrido[2,3-d]pyrimidine-6-carboxylic acid amide]
4 | 8.77 |  | CONC(=O)c1cn(-c2ccc3c(c2)CCC3)c2nc(Nc3ccc(CCN4CCC(F)(F)C4)cc3)ncc2c1=O [Cpd 241, 2-{4-[2-(3,3-difluoro-pyrrolidin-1-yl)-ethyl]-phenylamino}-8-indan-5-yl-5-oxo-5,8-dihydro-pyrido[2,3-d]pyrimidine-6-carboxylic acid methoxy-amide]
5 | 9.03 |  | CCN1CCCC(Oc2cccc(Nc3ncc4c(=O)c(C(=O)NOC)cn(-c5ccc6c(c5)CCC6)c4n3)c2)C1 (stereo not drawn) [Cpd 251, 2-[3-(1-ethyl-piperidin-3-yloxy)-phenylamino]-8-indan-5-yl-5-oxo-5,8-dihydro-pyrido[2,3-d]pyrimidine-6-carboxylic acid methoxy-amide]
6 | 9.05 |  | CCn1cnc2cc(Nc3ncc4c(=O)c(C(=O)NOC)cn(-c5ccc6c(c5)CCC6)c4n3)ccc21 [Cpd 301, 2-(1-ethyl-1H-benzoimidazol-5-ylamino)-8-indan-5-yl-5-oxo-5,8-dihydro-pyrido[2,3-d]pyrimidine-6-carboxylic acid methoxy-amide]
7 | 8.82 |  | CONC(=O)c1cn(C2CCCC2)c2nc(Nc3ccc(CCN4CCN(C)CC4)cc3)ncc2c1=O [Cpd 48, 8-cyclopentyl-2-{4-[2-(4-methyl-piperazin-1-yl)-ethyl]-phenylamino}-5-oxo-5,8-dihydro-pyrido[2,3-d]pyrimidine-6-carboxylic acid methoxy-amide]
8 | 8.89 |  | CONC(=O)c1cn(-c2ccc3c(c2)CCC3)c2nc(Nc3ccc(C4CCN(CCO)CC4)cc3)ncc2c1=O [Cpd 88, 2-{4-[1-(2-hydroxy-ethyl)-piperidin-4-yl]-phenylamino}-8-indan-5-yl-5-oxo-5,8-dihydro-pyrido[2,3-d]pyrimidine-6-carboxylic acid methoxy-amide]
9 | 8.92 |  | CONC(=O)c1cn(-c2ccc3c(c2)CCC3)c2nc(Nc3ccc(CCN4CCS(=O)(=O)CC4)cc3)ncc2c1=O [Cpd 206, 2-{4-[2-(1,1-dioxo-1λ^6-thiomorpholin-4-yl)-ethyl]-phenylamino}-8-indan-5-yl-5-oxo-5,8-dihydro-pyrido[2,3-d]pyrimidine-6-carboxylic acid methoxy-amide]
10 | 8.60 |  | CCN1CCCC1CNC(=O)c1cccc(Nc2ncc3c(=O)c(C(=O)NOC)cn(-c4ccc5c(c4)CCC5)c3n2)c1 (stereo not drawn) [Cpd 193, 2-{3-[(1-ethyl-pyrrolidin-2-ylmethyl)-carbamoyl]-phenylamino}-8-indan-5-yl-5-oxo-5,8-dihydro-pyrido[2,3-d]pyrimidine-6-carboxylic acid methoxy-amide]
11 | 8.92 |  | CCc1ccc(-n2cc(C(=O)NOC)c(=O)c3cnc(Nc4ccc(OCCOC)cc4)nc32)cc1 [Cpd 257, 8-(4-ethyl-phenyl)-2-[4-(2-methoxy-ethoxy)-phenylamino]-5-oxo-5,8-dihydro-pyrido[2,3-d]pyrimidine-6-carboxylic acid methoxy-amide]
12 | 8.70 |  | CONC(=O)c1cn(-c2ccc3c(c2)CCC3)c2nc(Nc3ccc(Cc4nnn[nH]4)cc3)ncc2c1=O [Cpd 91, 8-indan-5-yl-5-oxo-2-[4-(1H-tetrazol-5-ylmethyl)-phenylamino]-5,8-dihydro-pyrido[2,3-d]pyrimidine-6-carboxylic acid methoxy-amide]
13 | 8.80 |  | CCc1ccc(-n2cc(C(=O)NOC)c(=O)c3cnc(Nc4ccc(CC(=O)NNC)cc4)nc32)cc1 [Cpd 106, 8-(4-ethyl-phenyl)-2-[4-(N′-methyl-hydrazinocarbonylmethyl)-phenylamino]-5-oxo-5,8-dihydro-pyrido[2,3-d]pyrimidine-6-carboxylic acid methoxy-amide]
14 | 8.82 |  | CCc1ccc(-n2cc(C(=O)NOC)c(=O)c3cnc(Nc4ccc5cn[nH]c5c4)nc32)cc1 [Cpd 288, 8-(4-ethyl-phenyl)-2-(1H-indazol-6-ylamino)-5-oxo-5,8-dihydro-pyrido[2,3-d]pyrimidine-6-carboxylic acid methoxy-amide]
15 | 9.10 |  | CONC(=O)c1cn(-c2cccc(C(F)(F)F)c2)c2nc(Nc3ccc(C4CCN(C)CC4)cc3)ncc2c1=O
16 | 8.38 |  | CONC(=O)c1cn(-c2ccc3c(c2)CCC3)c2nc(Nc3cccc(C(=O)NCCN4CCOCC4)c3)ncc2c1=O [Cpd 198, 8-indan-5-yl-2-[3-(2-morpholin-4-yl-ethylcarbamoyl)-phenylamino]-5-oxo-5,8-dihydro-pyrido[2,3-d]pyrimidine-6-carboxylic acid methoxy-amide]
17 | 8.74 |  | CCc1ccc(-n2cc(C(=O)NOC)c(=O)c3cnc(Nc4ccccc4)nc32)cc1 [Cpd 316, 8-(4-ethyl-phenyl)-5-oxo-2-phenylamino-5,8-dihydro-pyrido[2,3-d]pyrimidine-6-carboxylic acid methoxy-amide]
18 | 8.74 |  | CC(=O)N1CCC(c2ccc(Nc3ncc4c(=O)c(C(N)=O)cn(-c5ccc6c(c5)CCC6)c4n3)cc2)CC1 [Cpd 126, 2-[4-(1-acetyl-piperidin-4-yl)-phenylamino]-8-indan-5-yl-5-oxo-5,8-dihydro-pyrido[2,3-d]pyrimidine-6-carboxylic acid amide]
19 | 9.70 |  | CCN1CCC(Oc2ccc(Nc3ncc4c(=O)c(C(=O)NOC)cn(-c5ccc6c(c5)CCC6)c4n3)cc2)CC1 [Cpd 312, 2-[4-(1-ethyl-piperidin-4-yloxy)-phenylamino]-8-indan-5-yl-5-oxo-5,8-dihydro-pyrido[2,3-d]pyrimidine-6-carboxylic acid methoxy-amide]
20 | 9.12 |  | CONC(=O)c1cn(-c2ccc3c(c2)CCC3)c2nc(Nc3ccc(CCN4CCN(C(=O)OC)CC4)cc3)ncc2c1=O [Cpd 150, 4-{2-[4-(8-indan-5-yl-6-methoxycarbamoyl-5-oxo-5,8-dihydro-pyrido[2,3-d]pyrimidin-2-ylamino)-phenyl]-ethyl}-piperazine-1-carboxylic acid methyl ester]
21 | 9.62 |  | CONC(=O)c1cn(-c2ccc3c(c2)CCC3)c2nc(Nc3ccc(CN4CCCC4=O)cc3)ncc2c1=O [Cpd 9, 8-indan-5-yl-5-oxo-2-[4-(2-oxo-pyrrolidin-1-ylmethyl)-phenylamino]-5,8-dihydro-pyrido[2,3-d]pyrimidine-6-carboxylic acid methoxy-amide]
22 |  | 8.62 | CONC(=O)c1cn(-c2ccc3c(c2)CCC3)c2nc(Nc3ccc(CCS(=O)(=O)NC(C)=O)cc3)ncc2c1=O [Cpd 90, 2-[4-(2-acetylsulfamoyl-ethyl)-phenylamino]-8-indan-5-yl-5-oxo-5,8-dihydro-pyrido[2,3-d]pyrimidine-6-carboxylic acid methoxy-amide]
23 | 7.24 |  | O=C(c1cn(C2CCCC2)c2nc(Nc3ccc(CCN4CCCC4)cc3)ncc2c1=O)N1CCOCC1 [Cpd 42, 8-cyclopentyl-6-(morpholine-4-carbonyl)-2-[4-(2-pyrrolidin-1-yl-ethyl)-phenylamino]-8H-pyrido[2,3-d]pyrimidin-5-one]
24 | 9.10 |  | CCc1ccc(-n2cc(C(=O)NOC)c(=O)c3cnc(Nc4cccc(OC5CCN(CC)CC5)c4)nc32)cc1 [Cpd 322, 8-(4-ethyl-phenyl)-2-[3-(1-ethyl-piperidin-4-yloxy)-phenylamino]-5-oxo-5,8-dihydro-pyrido[2,3-d]pyrimidine-6-carboxylic acid methoxy-amide]
25 | 9.14 |  | CONC(=O)c1cn(-c2ccc3c(c2)CCC3)c2nc(Nc3ccc(C4CCN(CCS(C)(=O)=O)CC4)cc3)ncc2c1=O [Cpd 78, 8-indan-5-yl-2-{4-[1-(2-methanesulfonyl-ethyl)-piperidin-4-yl]-phenylamino}-5-oxo-5,8-dihydro-pyrido[2,3-d]pyrimidine-6-carboxylic acid methoxy-amide]
26 | 9.11 |  | CONC(=O)c1cn(-c2ccc3c(c2)CCC3)c2nc(Nc3ccc(Cc4ccncc4)cc3)ncc2c1=O [Cpd 173, 8-indan-5-yl-5-oxo-2-(4-pyridin-4-ylmethyl-phenylamino)-5,8-dihydro-pyrido[2,3-d]pyrimidine-6-carboxylic acid methoxy-amide]
27 | 8.96 |  | CONC(=O)c1cn(-c2ccc3c(c2)CCC3)c2nc(Nc3ccc(CN4CCN(C)CC4)cc3)ncc2c1=O [Cpd 128, 8-indan-5-yl-2-[4-(4-methyl-piperazin-1-ylmethyl)-phenylamino]-5-oxo-5,8-dihydro-pyrido[2,3-d]pyrimidine-6-carboxylic acid methoxy-amide]
28 | 9.37 |  | CCc1ccc(-n2cc(C(=O)NOC)c(=O)c3cnc(Nc4cccc(OC5CCCNC5)c4)nc32)cc1 (stereo not drawn) [Cpd 248, 8-(4-ethyl-phenyl)-5-oxo-2-[3-(piperidin-3-yloxy)-phenylamino]-5,8-dihydro-pyrido[2,3-d]pyrimidine-6-carboxylic acid methoxy-amide]
29 | 8.77 |  | CONC(=O)c1cn(-c2ccc3c(c2)CCC3)c2nc(Nc3ccc(CCN4CCCC(F)(F)C4)cc3)ncc2c1=O
30 | 8.85 |  | CONC(=O)c1cn(C2CCCCC2)c2nc(Nc3ccc(C4CCNCC4)cc3)ncc2c1=O [Cpd 26, 8-cyclohexyl-5-oxo-2-(4-piperidin-4-yl-phenylamino)-5,8-dihydro-pyrido[2,3-d]pyrimidine-6-carboxylic acid methoxy-amide]
